In the first test the target is T1, ΔF508-CFTR (Homo sapiens, UniProt P13569, DEL508-508).
T1 construct: expressed in transfected cells
T1 sequence (P13569 with tags, fused parts or gaps DEL508-508): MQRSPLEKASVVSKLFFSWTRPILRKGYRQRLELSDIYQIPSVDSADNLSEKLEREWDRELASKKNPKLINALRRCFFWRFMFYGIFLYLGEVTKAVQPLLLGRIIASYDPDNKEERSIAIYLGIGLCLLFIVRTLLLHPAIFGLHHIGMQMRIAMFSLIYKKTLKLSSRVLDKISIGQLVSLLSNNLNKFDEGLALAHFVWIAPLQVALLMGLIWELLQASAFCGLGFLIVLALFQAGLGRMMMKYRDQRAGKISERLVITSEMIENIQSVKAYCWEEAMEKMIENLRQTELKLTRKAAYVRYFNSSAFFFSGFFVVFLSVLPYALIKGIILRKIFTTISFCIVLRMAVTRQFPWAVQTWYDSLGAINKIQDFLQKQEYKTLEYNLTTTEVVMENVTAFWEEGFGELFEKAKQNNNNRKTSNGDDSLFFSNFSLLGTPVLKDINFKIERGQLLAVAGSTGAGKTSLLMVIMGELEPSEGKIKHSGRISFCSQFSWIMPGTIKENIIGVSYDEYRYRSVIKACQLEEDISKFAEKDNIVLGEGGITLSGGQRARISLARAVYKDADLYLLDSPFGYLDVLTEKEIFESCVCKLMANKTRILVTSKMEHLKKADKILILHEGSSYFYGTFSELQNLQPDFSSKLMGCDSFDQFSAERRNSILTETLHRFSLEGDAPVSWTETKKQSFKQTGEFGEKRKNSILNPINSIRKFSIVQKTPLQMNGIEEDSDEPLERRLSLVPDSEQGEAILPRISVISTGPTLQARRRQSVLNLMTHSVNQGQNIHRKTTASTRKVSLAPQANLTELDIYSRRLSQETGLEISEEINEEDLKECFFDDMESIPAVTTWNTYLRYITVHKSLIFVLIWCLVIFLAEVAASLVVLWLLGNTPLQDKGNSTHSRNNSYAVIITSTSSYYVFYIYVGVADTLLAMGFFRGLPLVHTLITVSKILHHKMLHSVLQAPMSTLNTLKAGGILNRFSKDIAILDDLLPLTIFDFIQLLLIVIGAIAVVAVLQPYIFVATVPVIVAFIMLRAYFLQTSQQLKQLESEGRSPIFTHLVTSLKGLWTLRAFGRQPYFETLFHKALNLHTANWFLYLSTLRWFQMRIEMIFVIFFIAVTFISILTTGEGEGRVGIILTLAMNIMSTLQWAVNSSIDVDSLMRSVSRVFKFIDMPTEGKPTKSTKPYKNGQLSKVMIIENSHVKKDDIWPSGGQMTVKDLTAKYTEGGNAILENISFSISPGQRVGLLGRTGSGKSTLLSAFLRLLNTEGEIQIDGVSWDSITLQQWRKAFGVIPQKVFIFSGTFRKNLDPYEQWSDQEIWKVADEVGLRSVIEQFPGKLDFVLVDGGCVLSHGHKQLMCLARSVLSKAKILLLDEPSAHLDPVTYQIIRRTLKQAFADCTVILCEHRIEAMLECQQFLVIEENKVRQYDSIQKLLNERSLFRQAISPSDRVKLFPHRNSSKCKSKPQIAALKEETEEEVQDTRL
The experiment in a line: Membrane potential optical assay (FRET voltage-sensor dyes, VIPR), identification of potentiator compounds. It is filed as cell-based. Particulars: Table 3; assay not given. An excerpt:
The optical membrane potential assay utilized voltage-sensitive FRET sensors described by Gonzalez and Tsien (See Gonzalez, J. E. and R. Y. Tsien (1995) “Voltage sensing by fluorescence resonance energy transfer in single cells” Biophys J 69(4): 1272-80, and Gonzalez, J. E. and R. Y. Tsien (1997) “Improved indicators of cell membrane potential that use fluorescence resonance energy transfer” Chem Biol 4(4): 269-77) in combination with instrumentation for measuring fluorescence changes such as the Voltage/Ion Probe Reader (VIPR) (See […]. Oades, et al. (1999) “Cell-based assays and instrumentation for screening ion-channel targets” Drug Discov Today 4(9): 431-439). These voltage sensitive assays are based on the change in fluorescence resonant energy transfer (FRET) between the membrane-soluble, voltage-sensitive dye, DiSBAC2(3), and a fluorescent phospholipid, CC2-DMPE, which is attached to the outer leaflet of the plasma membrane and acts as a FRET donor. Changes in membrane potential (Vm) cause the negatively charged DiSBAC2(3) to redistribute across the plasma membrane and the amount of energy transfer from CC2-DMPE changes accordingly. The changes in fluorescence emission were monitored using VIPRTM II, which is an integrated liquid handler and fluorescent detector designed to conduct cell-based screens in 96- or 384-well microtiter plates. To identify potentiators of ΔF508-CFTR, a double-addition HTS assay format was developed. During the first addition, a Cl^--free medium with or without test compound was added to each well. […] (in mM) NaCl 160, KCl 4.5, CaCl2 2, MgCl2 1, HEPES 10, pH 7.4 with NaOH. • Chloride-free bath solution: Chloride salts in Bath Solution #1 are substituted with gluconate salts. • CC2-DMPE: Prepared as a 10 mM stock solution in DMSO and stored at -20° C. • DiSBAC2(3): Prepared as a 10 mM stock in DMSO and stored at -20° C. NIH3T3 mouse fibroblasts stably expressing ΔF508-CFTR are used for optical measurements of membrane potential. […] For all optical assays, the cells were seeded at 30,000/well in 384-well matrigel-coated plates and cultured for 2 hrs at 37° C. before culturing at 27° C. for 24 hrs. for the potentiator assay.
As usually defined, the EC50 is the concentration that produces a half-maximal response. For the compound `O=C(Nc1cccnc1Oc1ccc(F)cc1F)c1c[nH]c2ccccc2c1=O` [Compound 385, N-[2-(2,4-difluorophenoxy)-3-pyridyl]-4-oxo-1H-quinoline-3-carboxamide], the EC50 is below 10 µM.

Still in this test, the particulars now being: Table 3; assay not given; read-out: % Activity (% Efficacy, relative efficacy).
For the compound `O=C(Nc1ccc(N2CCC2)cc1C(F)(F)F)c1c[nH]c2ccccc2c1=O` [Compound 689, N-[4-azetidin-1-yl-2-(trifluoromethyl)phenyl]-4-oxo-1H-quinoline-3-carboxamide], the Emax fell in the range of 25 to 100%.

For `Cc1cccc2[nH]cc(C(=O)Nc3ccc(N4CCC(C)C4)cc3C(F)(F)F)c(=O)c12` (stereo not drawn) [Compound 546, 5-methyl-N-[4-(3-methylpyrrolidin-1-yl)-2-(trifluoromethyl)phenyl]-4-oxo-1H-quinoline-3-carboxamide], the Emax lay in the range of 25 to 100%.

Turning to `Cc1cc2ccc(NC(=O)c3c[nH]c4ccccc4c3=O)cc2[nH]1` [Compound 104, N-(2-methyl-1H-indol-6-yl)-4-oxo-1H-quinoline-3-carboxamide], the Emax is 25 to 100%.

Consider `Cc1ccccc1Oc1ccccc1NC(=O)c1c[nH]c2ccccc2c1=O` [Compound 20, N-[2-(2-methylphenoxy)phenyl]-4-oxo-1H-quinoline-3-carboxamide], for which the Emax lay within 25 to 100%.

For the compound `CC(C)(C)c1cc(C(C)(C)C)c(NC(=O)c2c[nH]c3c(F)cccc3c2=O)cc1O` [Compound 687, 8-fluoro-N-(5-hydroxy-2,4-ditert-butyl-phenyl)-4-oxo-1H-quinoline-3-carboxamide], the Emax was 25 to 100%.

With `Cc1cccc2[nH]cc(C(=O)Nc3ccc(OC4CCCC4)cc3C(F)(F)F)c(=O)c12` [Compound 595, N-[4-cyclopentoxy-2-(trifluoromethyl)phenyl]-5-methyl-4-oxo-1H-quinoline-3-carboxamide], the Emax fell in the range of 25 to 100%.

With `O=C(Nc1cccc2c1CCCC2)c1c[nH]c2ccccc2c1=O` [Compound 286, 1,4-dihydro-N-(1,2,3,4-tetrahydronaphthalen-5-yl)-4-oxoquinoline-3-carboxamide], the Emax is above 100%.

`CC(CO)(CO)c1ccc(NC(=O)c2c[nH]c3ccc(F)cc3c2=O)cc1` [Compound 627, 6-fluoro-N-[4-[2-hydroxy-1-(hydroxymethyl)-1-methyl-ethyl]phenyl]-4-oxo-1H-quinoline-3-carboxamide]: the Emax was below 25%.

Consider `CCc1cc(Br)ccc1NC(=O)c1c[nH]c2ccccc2c1=O` [Compound 263, N-(4-bromo-2-ethyl-phenyl)-4-oxo-1H-quinoline-3-carboxamide], for which the Emax is 25 to 100%.

Consider `CC(=O)N1CCc2ccc(NC(=O)c3c[nH]c4ccccc4c3=O)cc2C1` [Compound 303, N-(2-acetyl-1,2,3,4-tetrahydroisoquinolin-7-yl)-4-oxo-1H-quinoline-3-carboxamide], for which the Emax is 25 to 100%.

`Cc1cccc(Oc2ncccc2NC(=O)c2c[nH]c3ccccc3c2=O)c1C` [Compound 206, N-[2-(2,3-dimethylphenoxy)-3-pyridyl]-4-oxo-1H-quinoline-3-carboxamide]: the Emax is 25 to 100%.

For the compound `O=C(Nc1ccccc1-c1cccc(C(F)(F)F)c1)c1c[nH]c2ccccc2c1=O` [Compound 278, 4-oxo-N-[2-[3-(trifluoromethyl)phenyl]phenyl]-1H-quinoline-3-carboxamide], the Emax is 25 to 100%.

For the compound `Cc1ccc(NC(=O)c2c[nH]c3ccccc3c2=O)cc1C` [Compound 246, N-(3,4-dimethylphenyl)-4-oxo-1H-quinoline-3-carboxamide], the Emax was in the range of 25 to 100%.

Consider `CC(C)(C)OC(=O)Nc1ccc(NC(=O)c2c[nH]c3ccccc3c2=O)c(C(F)(F)F)c1` [Compound 600, tert-butyl [[4-[(4-oxo-1H-quinolin-3-yl)carbonylamino]-3-(trifluoromethyl)phenyl]amino]formate], for which the Emax lay within 25 to 100%.

Take `O=C(Nc1cccnc1Oc1ccc(F)cc1F)c1c[nH]c2ccccc2c1=O` [Compound 385, N-[2-(2,4-difluorophenoxy)-3-pyridyl]-4-oxo-1H-quinoline-3-carboxamide]: the Emax lay within 25 to 100%.

On to `O=C(Nc1ccccc1-c1cc2ccccc2s1)c1c[nH]c2ccccc2c1=O` [Compound 172, N-(2-(benzo[b]thiophen-2-yl)phenyl)-1,4-dihydro-4-oxoquinoline-3-carboxamide], for which the Emax was 25 to 100%.

As to `O=C(Nc1ccc(OC(F)F)cc1)c1c[nH]c2ccccc2c1=O` [Compound 360, N-[4-(difluoromethoxy)phenyl]-4-oxo-1H-quinoline-3-carboxamide], the Emax lay within 25 to 100%.

Regarding `CC(=O)Nc1cc(NC(=O)c2c[nH]c3ccccc3c2=O)ccc1C` [Compound 248, N-(3-Acetylamino-4-methyl-phenyl)-4-oxo-1H-quinoline-3-carboxamide], the Emax lay within 25 to 100%.

Regarding `CC(C)c1cc(C(F)(F)F)c(NC(=O)c2c[nH]c3ccccc3c2=O)cc1OCc1ccccc1` [Compound 570, N-[5-benzyloxy-4-isopropyl-2-(trifluoromethyl)phenyl]-4-oxo-1H-quinoline-3-carboxamide], the Emax was in the range of 25 to 100%.

Regarding `COc1nc2ccccc2c(OC)c1C(=O)Nc1ccccc1C(C)(C)C` [Compound 296, 2,4-dimethoxy-N-(2-tert-butylphenyl)-quinoline-3-carboxamide], the Emax lay in the range of 25 to 100%.

For the compound `CC(C)(C)c1cc(C#N)c(NC(=O)c2c[nH]c3ccccc3c2=O)cc1O` [Compound 476, N-(4-tert-Butyl-2-cyano-5-hydroxyphenyl)-1,4-dihydro-4-oxoquinoline-3-carboxamide], the Emax lay within 25 to 100%.

`CC(C)N1CCN(c2ccc(NC(=O)c3c[nH]c4ccccc4c3=O)c(C(F)(F)F)c2)CC1` [Compound 639, N-[4-(4-isopropylpiperazin-1-yl)-2-(trifluoromethyl)phenyl]-4-oxo-1H-quinoline-3-carboxamide]: the Emax is 25 to 100%.

Turning to `O=C(Nc1cc(C(F)(F)F)cc(C(F)(F)F)c1)c1c[nH]c2ccccc2c1=O` [Compound 154, N-[3,5-bis(trifluoromethyl)phenyl]-4-oxo-1H-quinoline-3-carboxamide], the Emax is below 25%.

Regarding `O=C(Nc1ccccc1-c1cccc(Cl)c1Cl)c1c[nH]c2ccccc2c1=O` [Compound 171, N-[2-(2,3-dichlorophenyl)phenyl]-4-oxo-1H-quinoline-3-carboxamide], the Emax lay within 25 to 100%.

In the case of `CC(C)(C)c1cc(NC(=O)c2c[nH]c3ccccc3c2=O)c(O)c(C(C)(C)C)c1` [Compound 136, N-(2-hydroxy-3,5-ditert-butyl-phenyl)-4-oxo-1H-quinoline-3-carboxamide], the Emax was in the range of 25 to 100%.

Regarding `O=C(Nc1ccc(CO)cc1)c1c[nH]c2ccccc2c1=O` [Compound 209, N-[4-(hydroxymethyl)phenyl]-4-oxo-1H-quinoline-3-carboxamide], the Emax was 25 to 100%.

Regarding `CCc1ccc(NC)cc1NC(=O)c1c[nH]c2ccccc2c1=O` [Compound 157, N-(2-ethyl-5-methylamino-phenyl)-4-oxo-1H-quinoline-3-carboxamide], the Emax lay in the range of 25 to 100%.

Consider `O=C(Nc1ccc(C(F)(F)F)cn1)c1c[nH]c2ccccc2c1=O` [Compound 74, 4-oxo-N-[5-(trifluoromethyl)-2-pyridyl]-1H-quinoline-3-carboxamide], for which the Emax was below 25%.

As for `Cc1ccc(C(F)(F)F)cc1NC(=O)c1c[nH]c2ccc(F)cc2c1=O` [Compound 678, 6-fluoro-N-[2-methyl-5-(trifluoromethyl)phenyl]-4-oxo-1H-quinoline-3-carboxamide], the Emax lay in the range of 25 to 100%.

With `CC(=O)Nc1ccc(C(C)(C)C)c(NC(=O)c2c[nH]c3ccccc3c2=O)c1` [Compound 316, N-(5-acetylamino-2-tert-butyl-phenyl)-4-oxo-1H-quinoline-3-carboxamide], the Emax lay within 25 to 100%.

As to `O=C(Nc1ccccc1-c1ccc(Cl)cc1)c1c[nH]c2ccccc2c1=O` [Compound 424, N-[2-(4-chlorophenyl)phenyl]-4-oxo-1H-quinoline-3-carboxamide], the Emax was 25 to 100%.

`O=C(Nc1ccc2c(c1)CCCC2)c1c[nH]c2ccccc2c1=O` [Compound 375, 1,4-dihydro-N-(1,2,3,4-tetrahydronaphthalen-6-yl)-4-oxoquinoline-3-carboxamide]: the Emax lay within 25 to 100%.

For the compound `CN(C)c1cccc(NC(=O)c2c[nH]c3ccccc3c2=O)c1` [Compound 418, N-(3-dimethylaminophenyl)-4-oxo-1H-quinoline-3-carboxamide], the Emax lay in the range of 25 to 100%.

Turning to `CC(C)c1ccc(NC(=O)c2c[nH]c3ccccc3c2=O)c(C(F)(F)F)c1` [Compound 47, N-[4-isopropyl-2-(trifluoromethyl)phenyl]-4-oxo-1H-quinoline-3-carboxamide], the Emax is 25 to 100%.

`COc1cc(C#N)c(NC(=O)c2c[nH]c3ccccc3c2=O)cc1OC` [Compound 106, N-(2-cyano-4,5-dimethoxy-phenyl)-4-oxo-1H-quinoline-3-carboxamide]: the Emax was below 25%.
